Source: patent US20100215653A1, “METHODS OF TREATING NEOPLASTIC, AUTOIMMUNE AND INFLAMMATORY DISEASES” (Seattle Genetics, Inc., priority 2006, published 2010)
“Also recorded” adds a separate entry of the source. Like-named read-outs stand apart in the source and are kept apart here.

Tests used:
HL-60 cells = assay: HL-60 disseminated AML model in mice; assay type: in vivo
Description: Mice were implanted with an AML cell line, HL-60, as follows: 5 million HL-60 cells were injected intravenously. The mice were treated with lintuzumab (10 mg/kg, q4dx4, ip), cytarabine (1 mg/kg, 5 mg/kg or 25 mg/kg, q1dx10, ip; or 50 mg/kg or 100 mg/kg, q2dx5, ip) or lintuzumab with cytarabine (dosed as described previously). Treatment began on day one. Referring to FIG. 22, the control mice or mice treated with placebo (0.9% saline) were removed from the study by day 80, due to tumor progression.
To confirm the data of the in vitro study, mice were implanted with an AML cell line, HL-60, as follows: 5 million HL-60 cells were injected intravenously. […] Treatment began on day one. Referring to FIG. 24, the control mice were removed from the study by about day 60 due to tumor progression. Mice treated with lenalidomide were removed from study by about day 90 for similar reasons.
The MDR-negative HL60 cell line and the MDR-positive HEL9217 and TF1-α cell lines were used. […] Disease symptoms typically developed between about 35 and about 80 days, and included hind limb paralysis, scruffy coat, weight loss, palpable tumors, and/or tumor masses in bone, peritoneal cavity, or soft tissues. Human CD33+ tumor cells were detected in the blood, bone marrow, and lymph nodes of the majority of the mice by flow cytometry (FIG. 25). Solid tumors associated with bone or soft tissues were found in 20 to 60% of the mice.

[1] = test system: advanced myeloid malignancies; assay: Phase I single-arm dose escalation trial; assay type: in vivo, human
Description: Entry criteria included CD33 expression on >50% of the marrow blasts to ensure that adequate target antigen was present. […] Clinical response was assessed by bone marrow morphology and hematologic improvement. […] Among AML patients, 6 had antecedent hematologic disorder. Dosing cohorts included 1.5 (6), 2.5 (4), 4 (4), and 8 mg/kg (17).

human CD14+ monocytes = assay: Cytokine, chemokine and growth factor production by human CD14+ monocytes; assay type: cell-based
Description: (§1) Tissue culture media was harvested 18 h later for cytokine analyses by ELISA or Searchlight (Pierce Endogen, Rockville, Ill.).

[2] = test system: relapsed and refractory acute myeloid leukemia (AML); settings: low dose, infrequent administration; cited from earlier work
CD33 = CD33 (Homo sapiens, UniProt P20138); assay: Apparent Kd by saturation binding using flow cytometry; set-up: endogenous in cells; host or cells: HL60, KG-1, HEL9217, TF1-α
Sequence of CD33 (P20138 18-364): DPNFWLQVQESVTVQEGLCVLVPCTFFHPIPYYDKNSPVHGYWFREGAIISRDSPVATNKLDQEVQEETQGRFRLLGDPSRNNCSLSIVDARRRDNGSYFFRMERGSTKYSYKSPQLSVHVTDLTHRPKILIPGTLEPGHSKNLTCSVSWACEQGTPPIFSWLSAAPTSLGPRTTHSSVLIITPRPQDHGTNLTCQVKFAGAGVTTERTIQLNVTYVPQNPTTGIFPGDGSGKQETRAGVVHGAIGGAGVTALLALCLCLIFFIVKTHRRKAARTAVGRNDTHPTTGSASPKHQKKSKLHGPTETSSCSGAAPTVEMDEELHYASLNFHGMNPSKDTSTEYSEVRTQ
Description: As a preliminary step, the AML cell lines HL60, KG-1, HEL9217 and TF1-α were assessed for multi-drug resistance (MDR) status and CD33 copy number. MDR status was determined by flow cytometry assessment of Rhodamine (Rh123) efflux at 37° C. […] CD33 copy number was determined by qFACs (DAKO QifiKit) and apparent Kd values by saturation binding measurements using flow cytometry.

[3] = test system: AML tumor cells (KG-1 HEL9217, and TF1α); assay: ADCC, 51Cr release assay with NK effector cells; assay type: cell-based, human; settings: MDR-positive and MDR-negative AML cells; effector to target ratio 10:1 (FIG. 27A)
Description: Target AML tumor cells (KG-1 HEL9217, and TF1α) were labeled with Na^51CrO4 and mixed with enriched CD16^+ effector (NK) cells, prepared using PBMCs from normal donors. The effector to target cell ratio was 10:1. […] Macrophages were labeled with CD11b−FITC or CD14-FITC antibody. Flow cytometric analyses of dual labeled (PKH67+CD11b+ or PKH67+CD14+) cells was used to determine specific uptake (phagocytosis). […] Media were collected 18 h later and analyzed by ELISA for IL-8 or MCP-1.
Viable NK cells were pre-treated for 2 to 3 h with lenalidomide or thalidomide (as described in FIG. 23) prior to addition to target cells.

[4] = test system: primary human macrophages; assay: Cytokine, chemokine and growth factor production by primary human macrophages; assay type: cell-based
Description: Primary human macrophages were generated from long-term cultures of freshly isolated human peripheral blood mononuclear cells (PBMCs; AllCells, Emeryville, Calif. or LifeBlood, Memphis, Tenn.). PBMCs were cultured in tissue culture flasks in RPMI 1640 medium containing glutamine (Invitrogen, Grand Island, N.Y.), 10% heat-inactivated FBS, and antibiotics for 3 to 4 hours. Non-adherent cells were removed by washing with PBS and the adherent cells were cultured in OptiMem-I medium (Invitrogen) containing 1% heat-inactivated FBS for 1 to 2 hours. The cells were washed with PBS and cultured for 10 to 14 days in X-VIVO-15 medium (Cambrex Bio Science, Walkersville, Md.) containing 500 U/ml GM-CSF (Peprotech, Rocky Hill, N.J.).
as §1

For “SGN-33: anti-CD33 antibody, a humanized version of mouse monoclonal antibody M195”, the survival (HL-60 cells; HL60 model, SCID mice, q4dx4, p<0.005 (FIG. 26)) was greater than 100 days, the increase of survival (HL-60 cells; MDR-negative HL60 model, 3 to 30 mg/kg, p<0.0001) was greater than 100 days and the survival rate (HL-60 cells; SGN-33 30 mg/kg q4dx5 ip (FIG. 24)) was roughly 85%. The survival rate (HL-60 cells; SGN-33 3 or 10 mg/kg q4dx5 ip (FIG. 24)) was roughly 50%, the “Grade 4 adverse events considered related to antibody” value ([1]; 31 patients) was “none” and the “patients achieving CR” value ([1]; among 18 patients with AML) was 4. The “patients achieving CR with incomplete platelet recovery” value ([1]; among 18 patients with AML) was 1, the accumulation ([1]; repeat dosing) was “documented with repeat dosing” and the dose limiting toxicity ([1]; weekly iv 1.5 to 8 mg/kg for 5 weeks, 31 patients) was “has not been observed”. The “basal and IFN-γ stimulated levels of IL-6, MCP-1, TNF-α, IL-8; IFN-γ stimulated level of RANTES” value (human CD14+ monocytes; adherent CD14+ monocytes, 48 h (FIG. 10)) was “reduced the basal levels and IFN-γ stimulated levels”, the “basal and conditioned media stimulated levels of IL-6, MCP-1, IL-8; conditioned media stimulated level of RANTES” value (human CD14+ monocytes; adherent CD14+ monocytes, RPMI-8228 conditioned media (FIG. 11)) was “reduced the basal levels and the RPMI-8228 conditioned media stimulated levels” and the “level of TNF-α” value (human CD14+ monocytes; adherent CD14+ monocytes, basal and RPMI-8228 conditioned media stimulated (FIG. 11)) was “reduced the basal level, but not the RPMI-8228 conditioned media stimulated level”. The “levels of IL-6, IL-8, TNF-α and MCP-1” value (human CD14+ monocytes; non-adherent CD14+ monocytes exposed to SGN-33 (FIG. 12)) was “small increases”, the “production of cytokines, chemokines and growth factors” value (human CD14+ monocytes; non-adherent CD14+ monocytes, IFN-γ (FIG. 12)) was “not inhibited by SGN-33, except for the basal level of RANTES” and the “IFN-γ-stimulated production of IL-1β, IL-10, IL-12 and MIP-1α” value (human CD14+ monocytes; primary human monocytes treated 1 hr before IFN-γ, 18 h, p<0.001 (FIG. 19)) was “significantly reduced”. For the same substance, the “levels of TNF-α” value (human CD14+ monocytes; primary human monocytes, various doses 1 hr before IFN-γ, 18 h, p<0.05 (FIG. 20)) was “significantly reduced levels of TNF-α in a dose-dependent manner”, the “blast cells in patients” value [2] was “induced significant reductions in blast cells” and the Kd (CD33; read-out: Kd (pM) for SGN-33, HEL9217 cells (MDR positive)) was 144 ± 12 pM. It also gave a Kd (CD33; read-out: Kd (pM) for SGN-33, HL60 cells (MDR negative)) of 123 ± 16 pM, a Kd (CD33; read-out: Kd (pM) for SGN-33, KG-1 cells (MDR negative)) of 70 ± 20 pM and a Kd (CD33; read-out: Kd (pM) for SGN-33, TF1-α cells (MDR positive)) of 99 ± 22 pM. For the same substance, the “ADCC activity (cell lysis)” value [3] was “mediated antibody-dependent cell cytotoxity; also recorded: mediate cell lysis of MDR− and MDR+AML tumor cell lines”, the “production of IL-6, TNF-α, RANTES and MCP-1” value ([4]; macrophages pre-incubated 3 hours with SGN-33, response to IFN-γ or conditioned media from RPMI-8226 and Karpus-620 cells, 24 h) was “reduced production of IL-6, TNF-α, RANTES, and MCP-1” and the “levels of TNF-α” value ([4]; primary human macrophages, various doses 1 hr before IFN-γ, 18 h, p<0.05 (FIG. 20)) was “significantly reduced levels of TNF-α in a dose-dependent manner”.
